Results taken from patent US12384789B2, “Compounds for treating Huntington's disease” (PTC Therapeutics, Inc., priority 2017, dated 2025).

Tested on: Endogenous Huntingtin Protein
Experiment: Endogenous Huntingtin Protein Assay (Meso Scale Discovery ELISA-based electrochemiluminescence)
Format: cell-based
Conditions: MSD electrochemiluminescence, Table 1
In short: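 MSD electrochemiluminescence sandwich ELISA: MW1 (expanded polyQ) or MAB2166 capture antibody at 1 μg/mL, samples incubated overnight at 4° C. Detection with rabbit monoclonal #5656S then SULFO-TAG anti-rabbit antibody, each 0.25 μg/mL for 1 h at room temperature.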

Row | Compound | IC50
1 | Cc1cn2cc(-c3nnc4cc(C5CC6CCC(C5)N6)ccc4n3)cc(F)c2n1 (centres unmarked) [Compound 56, 7-(8-azabicyclo[3.2.1]oct-3-yl)-3-(8-fluoro-2-methylimidazo[1,2-a]pyridin-6-yl)-1,2,4-benzotriazine] | ≤ 0.1 µM
2 | CCN1CC=C(c2cc(F)c3nc(-c4cc(F)c5nn(C)cc5c4)ccc3c2)CC1 [Compound 184, 6-(1-ethyl-1,2,3,6-tetrahydropyridin-4-yl)-8-fluoro-2-(7-fluoro-2-methyl-2H-indazol-5-yl)quinoline] | ≤ 0.1 µM
3 | Cc1nc2c(C)cc(-c3cc(F)c4nc(C5CCNCC5)nnc4c3)cc2o1 [Compound 62, 7-(2,4-dimethyl-1,3-benzoxazol-6-yl)-5-fluoro-3-(piperidin-4-yl)-1,2,4-benzotriazine] | ≤ 0.1 µM
4 | Cc1cn2nc(-c3cc(F)c4cc(N5CC[C@@H](N(C)C)C5)nnc4c3)cc(C)c2n1 [Compound 89, (3R)-1-[7-(2,8-dimethylimidazo[1,2-b]pyridazin-6-yl)-5-fluorocinnolin-3-yl]-N,N-dimethylpyrrolidin-3-amine] | ≤ 0.1 µM
5 | Cc1cn2nc(-c3cc(F)c4cc(C5CCN(CCO)CC5)nnc4c3)cc(CO)c2n1 [Compound 181, 2-(4-{5-fluoro-7-[8-(hydroxymethyl)-2-methylimidazo[1,2-b]pyridazin-6-yl]cinnolin-3-yl}piperidin-1-yl)ethan-1-ol] | ≤ 0.1 µM
6 | Cc1cc(-c2cc(F)c3nc(C4CCNCC4)nnc3c2)cc2cn(C)nc12 [Compound 33, 7-(2,7-dimethyl-2H-indazol-5-yl)-5-fluoro-3-(piperidin-4-yl)-1,2,4-benzotriazine] | ≤ 0.1 µM
7 | CCN1CCC(c2cc(F)c3cc(-c4cc(F)c5nn(C)cc5c4)nnc3c2)CC1 [Compound 154, 7-(1-ethylpiperidin-4-yl)-5-fluoro-3-(7-fluoro-2-methyl-2H-indazol-5-yl)cinnoline] | ≤ 0.1 µM
8 | CCc1cc(-c2cc(F)c3cc(C4CCN(CC)CC4)nnc3c2)nc2cn(C)nc12 [Compound 174, 7-(7-ethyl-2-methyl-2H-pyrazolo[4,3-b]pyridin-5-yl)-3-(1-ethylpiperidin-4-yl)-5-fluorocinnoline] | ≤ 0.1 µM
9 | CCN1CCC(c2cc3c(F)cc(-c4cc(C)c5nc(C)[nH]c5n4)cc3nn2)CC1 [Compound 132, 7-(2,7-dimethyl-3H-imidazo[4,5-b]pyridin-5-yl)-3-(1-ethylpiperidin-4-yl)-5-fluorocinnoline] | ≤ 0.1 µM
10 | Cc1cn2nc(-c3cc(F)c4cc(N5CCC(N(C)C)CC5)nnc4c3)cc(C)c2n1 [Compound 88, 1-[7-(2,8-dimethylimidazo[1,2-b]pyridazin-6-yl)-5-fluorocinnolin-3-yl]-N,N-dimethylpiperidin-4-amine] | ≤ 0.1 µM
11 | Cc1cn2nc(-c3cc(F)c4nc(C5CCNCC5)cnc4c3)cc(C)c2n1 [Compound 82, 6-(2,8-dimethylimidazo[1,2-b]pyridazin-6-yl)-8-fluoro-2-(piperidin-4-yl)quinoxaline] | ≤ 0.1 µM
12 | Cn1cc2cc(-c3cc4ccc(C5=CCNCC5)cc4nn3)ccc2n1 [Compound 4, 3-(2-methyl-2H-indazol-5-yl)-7-(1,2,3,6-tetrahydropyridin-4-yl)cinnoline] | 0.5 to 1 µM
13 | CCc1cc(-c2cc(F)c3cc(C4CCNCC4)nnc3c2)nn2cc(C)nc12 [Compound 105, 7-(8-ethyl-2-methylimidazo[1,2-b]pyridazin-6-yl)-5-fluoro-3-(piperidin-4-yl)cinnoline] | ≤ 0.1 µM
14 | Cc1cc(-c2cc3c(F)cc(C4=CCNCC4)cc3nn2)cc2cn(C)nc12 [Compound 157, 3-(2,7-dimethyl-2H-indazol-5-yl)-5-fluoro-7-(1,2,3,6-tetrahydropyridin-4-yl)cinnoline] | ≤ 0.1 µM
15 | Cc1cn2nc(-c3cc(F)c4cc(C5CCN(CCF)CC5)nnc4c3)cc(C)c2n1 [Compound 83, 7-(2,8-dimethylimidazo[1,2-b]pyridazin-6-yl)-5-fluoro-3-[1-(2-fluoroethyl)piperidin-4-yl]cinnoline] | ≤ 0.1 µM
16 | Cc1cn2nc(-c3cc(F)c4cc(N5C[C@@H](C)N[C@@H](C)C5)nnc4c3)cc(C)c2n1 [Compound 81, 7-(2,8-dimethylimidazo[1,2-b]pyridazin-6-yl)-3-[(3R,5S)-3,5-dimethylpiperazin-1-yl]-5-fluorocinnoline] | ≤ 0.1 µM
17 | CCN1CCC(c2cc(F)c3cc(-c4cc(C)c5nc(C)cn5n4)nnc3c2)CC1 [Compound 186, 3-(2,8-dimethylimidazo[1,2-b]pyridazin-6-yl)-7-(1-ethylpiperidin-4-yl)-5-fluorocinnoline] | ≤ 0.1 µM
18 | CCN1CCC(c2ccc3cc(-c4ccc5nn(C)cc5c4)ccc3n2)CC1 [Compound 9, 2-(1-ethylpiperidin-4-yl)-6-(2-methyl-2H-indazol-5-yl)quinoline] | 1 to 3 µM
19 | Cc1cc(-c2ccc3nc(C4CCNCC4)ncc3c2)cc2cn(C)nc12 [Compound 23, 6-(2,7-dimethyl-2H-indazol-5-yl)-2-(piperidin-4-yl)quinazoline] | 0.1 to 0.5 µM
20 | Cn1cc2cc(-c3nnc4cc(C5CCNCC5)ccc4n3)cc(F)c2n1 [Compound 25, 3-(7-fluoro-2-methyl-2H-indazol-5-yl)-7-(piperidin-4-yl)-1,2,4-benzotriazine] | ≤ 0.1 µM
